One experiment has as its target T1, HiBiT-BRM (Homo sapiens, UniProt P51531).
T1 construct: expressed in transfected cells
Kind of experiment: HiBiT-BRM cell-based degradation assay (Nano-Glo HiBiT Lytic Detection). The following applies: HeLa cells expressing HiBiT-BRM, 24 h; for DC50: read-out: BRM HiBit Degradation IC50. The procedure, abridged:
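HeLa cells stably expressing HiBiT-tagged BRM were treated for 24 h, then lysed with LgBiT-containing Nano-Glo reagent and luminescence read. % degradation scaled between DMSO (high control) and 2 μM reference BRM/BRG1 degrader (low control).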
On the technique in general: HiBiT is a short tag that completes a luciferase, so light tracks the accessible tagged protein.

Another experiment has as its target T2, HiBit-BRG1 (Homo sapiens, UniProt P51532).
T2 construct: expressed in transfected cells
Kind of experiment: HiBit-BRG1 cell-based degradation assay (Nano-Glo HiBiT Lytic Detection). The following applies: HeLa cells expressing HiBit-BRG1 and LgBit, 24 h; for DC50: read-out: BRG1 HiBit Degradation IC50; for Dmax: read-out: BRG1 HiBit Degradation Maximum (%). Put shortly: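 Luminescence from Nano-Glo HiBiT lytic detection, read after 24 h compound exposure, scored degradation in a stable HeLa HiBiT-BRG1/LgBit line seeded at 5000 cells/well. DMSO wells defined 0% and 2 μM known BRM/BRG1 degrader wells defined full degradation.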

Where a name gives a salt, the structure may show the parent alone.

T1 sequence (P51531 whole entry): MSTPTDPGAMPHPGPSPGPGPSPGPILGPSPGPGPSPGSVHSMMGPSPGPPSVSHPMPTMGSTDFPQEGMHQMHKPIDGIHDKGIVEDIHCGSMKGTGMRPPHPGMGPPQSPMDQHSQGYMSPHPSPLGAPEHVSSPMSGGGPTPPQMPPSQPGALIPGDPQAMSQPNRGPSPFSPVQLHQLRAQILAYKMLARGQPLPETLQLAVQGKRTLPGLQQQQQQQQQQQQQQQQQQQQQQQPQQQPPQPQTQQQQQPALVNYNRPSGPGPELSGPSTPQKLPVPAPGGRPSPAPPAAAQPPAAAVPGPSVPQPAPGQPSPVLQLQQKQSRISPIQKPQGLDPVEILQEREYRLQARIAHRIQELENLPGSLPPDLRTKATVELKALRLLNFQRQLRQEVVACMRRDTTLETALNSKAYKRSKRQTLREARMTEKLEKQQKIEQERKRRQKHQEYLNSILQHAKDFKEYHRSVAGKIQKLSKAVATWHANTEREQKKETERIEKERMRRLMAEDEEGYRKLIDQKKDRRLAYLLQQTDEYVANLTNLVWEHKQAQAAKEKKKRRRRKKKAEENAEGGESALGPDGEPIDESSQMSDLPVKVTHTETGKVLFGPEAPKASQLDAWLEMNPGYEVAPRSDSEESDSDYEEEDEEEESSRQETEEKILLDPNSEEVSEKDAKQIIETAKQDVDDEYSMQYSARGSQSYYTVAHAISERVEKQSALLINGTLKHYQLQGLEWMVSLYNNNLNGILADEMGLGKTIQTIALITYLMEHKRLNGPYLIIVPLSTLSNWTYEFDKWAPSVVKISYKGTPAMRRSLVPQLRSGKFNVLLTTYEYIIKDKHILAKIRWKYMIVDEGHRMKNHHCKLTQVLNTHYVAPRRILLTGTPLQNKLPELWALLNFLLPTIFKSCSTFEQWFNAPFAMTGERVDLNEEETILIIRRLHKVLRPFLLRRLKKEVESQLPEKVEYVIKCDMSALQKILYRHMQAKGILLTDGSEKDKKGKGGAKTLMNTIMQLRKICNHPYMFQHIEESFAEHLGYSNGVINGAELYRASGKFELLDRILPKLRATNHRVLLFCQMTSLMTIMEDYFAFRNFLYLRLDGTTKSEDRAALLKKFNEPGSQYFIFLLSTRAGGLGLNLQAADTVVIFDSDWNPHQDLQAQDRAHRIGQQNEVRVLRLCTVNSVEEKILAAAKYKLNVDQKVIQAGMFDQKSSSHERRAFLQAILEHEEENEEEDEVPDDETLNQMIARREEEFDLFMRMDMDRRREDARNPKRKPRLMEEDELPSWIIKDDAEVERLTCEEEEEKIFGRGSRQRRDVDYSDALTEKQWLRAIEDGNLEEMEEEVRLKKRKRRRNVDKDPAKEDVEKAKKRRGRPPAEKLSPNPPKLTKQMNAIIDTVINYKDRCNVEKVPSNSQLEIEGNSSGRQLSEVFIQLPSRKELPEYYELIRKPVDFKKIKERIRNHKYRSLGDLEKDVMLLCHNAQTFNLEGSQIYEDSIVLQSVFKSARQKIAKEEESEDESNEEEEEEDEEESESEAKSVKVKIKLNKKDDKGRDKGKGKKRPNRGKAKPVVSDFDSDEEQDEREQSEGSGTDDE
T2 sequence (P51532 whole entry): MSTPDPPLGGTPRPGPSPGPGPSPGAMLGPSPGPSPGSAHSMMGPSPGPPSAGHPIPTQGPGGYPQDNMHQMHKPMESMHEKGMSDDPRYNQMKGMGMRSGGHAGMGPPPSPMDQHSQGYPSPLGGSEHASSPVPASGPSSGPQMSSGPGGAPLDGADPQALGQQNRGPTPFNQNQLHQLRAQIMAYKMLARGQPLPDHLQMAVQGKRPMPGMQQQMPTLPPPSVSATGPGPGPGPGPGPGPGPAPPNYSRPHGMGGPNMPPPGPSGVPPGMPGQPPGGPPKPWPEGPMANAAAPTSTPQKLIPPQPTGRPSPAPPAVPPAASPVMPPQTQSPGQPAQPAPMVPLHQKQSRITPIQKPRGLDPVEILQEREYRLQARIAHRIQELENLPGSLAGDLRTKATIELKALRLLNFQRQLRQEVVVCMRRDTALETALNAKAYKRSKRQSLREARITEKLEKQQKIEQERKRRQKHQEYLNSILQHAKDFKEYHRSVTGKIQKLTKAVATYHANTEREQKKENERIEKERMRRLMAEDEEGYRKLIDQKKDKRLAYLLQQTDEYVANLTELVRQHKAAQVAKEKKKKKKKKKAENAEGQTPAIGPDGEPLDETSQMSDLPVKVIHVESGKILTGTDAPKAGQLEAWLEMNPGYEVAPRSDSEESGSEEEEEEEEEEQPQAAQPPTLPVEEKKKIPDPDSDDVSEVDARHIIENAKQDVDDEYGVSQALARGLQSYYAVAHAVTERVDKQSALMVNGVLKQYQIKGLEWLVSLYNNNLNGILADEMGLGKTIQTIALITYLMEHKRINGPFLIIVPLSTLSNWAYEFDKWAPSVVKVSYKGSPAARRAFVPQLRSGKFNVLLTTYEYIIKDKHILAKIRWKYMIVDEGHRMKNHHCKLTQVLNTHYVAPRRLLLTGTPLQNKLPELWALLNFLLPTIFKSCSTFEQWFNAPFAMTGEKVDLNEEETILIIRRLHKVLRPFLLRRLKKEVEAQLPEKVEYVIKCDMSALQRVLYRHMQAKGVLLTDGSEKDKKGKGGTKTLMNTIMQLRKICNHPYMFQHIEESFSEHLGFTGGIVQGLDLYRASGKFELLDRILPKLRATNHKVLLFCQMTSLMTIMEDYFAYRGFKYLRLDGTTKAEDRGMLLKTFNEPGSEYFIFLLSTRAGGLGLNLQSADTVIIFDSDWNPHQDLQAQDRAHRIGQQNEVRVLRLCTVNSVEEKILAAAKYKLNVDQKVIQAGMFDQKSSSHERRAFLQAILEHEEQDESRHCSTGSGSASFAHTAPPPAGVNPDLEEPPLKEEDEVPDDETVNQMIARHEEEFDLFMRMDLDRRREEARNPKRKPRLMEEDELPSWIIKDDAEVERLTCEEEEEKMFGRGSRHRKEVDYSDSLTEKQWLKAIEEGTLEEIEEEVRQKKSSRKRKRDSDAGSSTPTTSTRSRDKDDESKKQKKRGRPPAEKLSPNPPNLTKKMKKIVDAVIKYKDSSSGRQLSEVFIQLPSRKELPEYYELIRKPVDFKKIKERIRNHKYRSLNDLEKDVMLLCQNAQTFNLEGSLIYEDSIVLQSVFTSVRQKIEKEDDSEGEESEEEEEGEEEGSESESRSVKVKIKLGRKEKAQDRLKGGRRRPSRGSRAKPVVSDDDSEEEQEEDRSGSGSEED

Regarding `Nc1nnc(-c2ccccc2O)cc1OCCc1ccc(CNC(=O)CCCCNc2cccc3nnn(C4CCC(=O)NC4=O)c(=O)c23)cc1` (stereo not drawn) [Compound 1, N-(4-(2-((3-amino-6-(2-hydroxyphenyl)pyridazin-4-yl)oxy)ethyl)benzyl)-5-((3-(2,6-dioxopiperidin-3-yl)-4-oxo-3,4-dihydrobenzo[d][1,2,3]triazin-5-yl)amino)pentanamide], the DC50 at HiBiT-BRM was above 0.1 µM; on HiBit-BRG1, above 1 µM.
Consider `Cc1ncsc1-c1ccc([C@H](C)NC(=O)[C@@H]2C[C@@H](O)CN2C(=O)[C@@H](c2cc(OCCNCCC(=O)NCc3ccc(CCOc4cc(-c5ccccc5O)nnc4N)cc3)no2)C(C)C)cc1` [Compound 230, (2S,4R)-1-((R)-2-(3-(2-((3-((4-(2-((3-amino-6-(2-hydroxyphenyl)pyridazin-4-yl)oxy)ethyl)benzyl)amino)-3-oxopropyl)amino)ethoxy)isoxazol-5-yl)-3-methylbutanoyl)-4-hydroxy-N-((S)-1-(4-(4-methylthiazol-5-yl)phenyl)ethyl)pyrrolidine-2-carboxamide], for which, at HiBiT-BRM, the “BRM HiBit Degradation Maximum (%)” value was “A (“A” indicates maximum degradation ≥75%)” and the DC50 is above 0.1 µM. In addition, at HiBit-BRG1, the DC50 is above 1 µM and the Dmax was above 75%.
For `Cc1ncsc1-c1ccc([C@H](C)NC(=O)[C@@H]2C[C@@H](O)CN2C(=O)[C@@H](NC(=O)CCN2C[C@H]3CN(CCC(=O)NCc4ccc(CCOc5cc(-c6ccccc6O)nnc5N)cc4)C[C@H]3C2)C(C)(C)C)cc1` [Compound 259, (2S,4R)-1-((2S)-2-(3-(5-(3-((4-(2-((3-amino-6-(2-hydroxyphenyl)pyridazin-4-yl)oxy)ethyl)benzyl)amino)-3-oxopropyl)hexahydropyrrolo[3,4-c]pyrrol-2(1H)-yl)propanamido)-3,3-dimethylbutanoyl)-4-hydroxy-N-((S)-1-(4-(4-methylthiazol-5-yl)phenyl)ethyl)pyrrolidine-2-carboxamide], on HiBiT-BRM, the “BRM HiBit Degradation Maximum (%)” value was “C (“C” indicates maximum degradation <50%)” and the DC50 is above 1 µM. Besides, at HiBit-BRG1, the DC50 was above 1 µM and the Dmax is below 50%.
As to `Nc1nnc(-c2ccccc2O)cc1OCCc1ccc(CNC(=O)CCCCCCCCCCNc2cccc3c2C(=O)N(C2CCC(=O)NC2=O)C3=O)cc1` (stereo not drawn) [Compound 72], at HiBiT-BRM, the “BRM HiBit Degradation Maximum (%)” value was “C (“C” indicates maximum degradation <50%)” and the DC50 was above 1 µM. Also, on HiBit-BRG1, the DC50 is above 1 µM and the Dmax is below 50%.
Consider `Nc1nnc(-c2ccccc2O)cc1N1CCN(CCNC(=O)CCCOc2cccc3c2C(=O)N(C2CCC(=O)NC2=O)C3=O)CC1` (stereo not drawn) [Compound 84, N-(2-(4-(3-amino-6-(2-hydroxyphenyl)pyridazin-4-yl)piperazin-1-yl)ethyl)-4-((2-(2,6-dioxopiperidin-3-yl)-1,3-dioxoisoindolin-4-yl)oxy)butanamide], for which, on HiBiT-BRM, the “BRM HiBit Degradation Maximum (%)” value is reported as “C (“C” indicates maximum degradation <50%)” and the DC50 is above 1 µM. On HiBit-BRG1, the DC50 was above 1 µM and the Dmax is below 50%.
As for `CN(CCc1ccc(CNCCN2CCN(c3cccc4c3C(=O)N(C3CCC(=O)NC3=O)C4=O)CC2)cc1)c1cc(-c2ccccc2O)nnc1N` (stereo not drawn) [Compound 160, 4-(4-(2-((4-(2-((3-amino-6-(2-hydroxyphenyl)pyridazin-4-yl)(methyl)amino)ethyl)benzyl)amino)ethyl)piperazin-1-yl)-2-(2,6-dioxopiperidin-3-yl)isoindoline-1,3-dione diformate], at HiBiT-BRM, the “BRM HiBit Degradation Maximum (%)” value is “B (“B” indicates maximum degradation ≥50%)” and the DC50 is above 1 µM. In addition, at HiBit-BRG1, the DC50 is above 1 µM and the Dmax is above 50%.
For `CN(CCCCCNc1cccc2c1C(=O)N(C1CCC(=O)NC1=O)C2=O)Cc1ccc(CCOc2cc(-c3ccccc3O)nnc2N)cc1` (stereo not drawn) [Compound 156, 4-((5-((4-(2-((3-amino-6-(2-hydroxyphenyl)pyridazin-4-yl)oxy)ethyl)benzyl)(methyl)amino)pentyl)amino)-2-(2,6-dioxopiperidin-3-yl)isoindoline-1,3-dione formate], at HiBiT-BRM, the “BRM HiBit Degradation Maximum (%)” value is reported as “B (“B” indicates maximum degradation ≥50%)” and the DC50 was above 0.01 µM. At HiBit-BRG1, the DC50 is below 0.01 µM and the Dmax is above 50%.
On to `Nc1nnc(-c2ccccc2O)cc1OCCc1ccc(C(=O)NCCCCCNc2ccc3c(c2)C(=O)N(C2CCC(=O)NC2=O)C3=O)cc1` (stereo not drawn) [Compound 51, 4-(2-[[3-amino-6-(2-hydroxyphenyl)pyridazin-4-yl]oxy]ethyl)-N-(5-[[2-(2,6-dioxopiperidin-3-yl)-1,3-dioxoisoindol-5-yl]amino]pentyl)benzamide], for which, at HiBiT-BRM, the “BRM HiBit Degradation Maximum (%)” value is listed as “C (“C” indicates maximum degradation <50%)” and the DC50 is above 1 µM. Further, on HiBit-BRG1, the DC50 is above 1 µM and the Dmax is below 50%.
For `Cc1ncsc1-c1ccc(CNC(=O)[C@@H]2C[C@@H](O)CN2C(=O)[C@@H](NC(=O)CCCCCCCCCCCCCCC(=O)N(C)Cc2ccc(CCOc3cc(-c4ccccc4O)nnc3N)cc2)C(C)(C)C)cc1` [Compound 223, N1-(4-(2-((3-amino-6-(2-hydroxyphenyl)pyridazin-4-yl)oxy)ethyl)benzyl)-N16-((S)-1-((2S,4R)-4-hydroxy-2-((4-(4-methylthiazol-5-yl)benzyl)carbamoyl)pyrrolidin-1-yl)-3,3-dimethyl-1-oxobutan-2-yl)-N1-methylhexadecanediamide], on HiBiT-BRM, the “BRM HiBit Degradation Maximum (%)” value is on record as “A (“A” indicates maximum degradation ≥75%)” and the DC50 is above 0.1 µM. Moreover, on HiBit-BRG1, the DC50 is above 1 µM and the Dmax is below 50%.
On to `Nc1nnc(-c2ccccc2O)cc1OCCc1ccc(CNC(=O)CCCCNc2cccc3c2CN(C2CCC(=O)NC2=O)C3=O)cc1` (stereo not drawn) [Compound 2, N-(4-(2-((3-amino-6-(2-hydroxyphenyl)pyridazin-4-yl)oxy)ethyl)benzyl)-5-((2-(2,6-dioxopiperidin-3-yl)-1-oxoisoindolin-4-yl)amino)pentanamide], for which, at HiBiT-BRM, the “BRM HiBit Degradation Maximum (%)” value is “C (“C” indicates maximum degradation <50%)” and the DC50 was above 1 µM. For the same compound, the DC50 on HiBit-BRG1 was above 1 µM.
`Cc1ncsc1-c1ccc([C@H](C)NC(=O)[C@@H]2C[C@@H](O)CN2C(=O)[C@@H](c2cc(OCCNCCCCCCCCCCC(=O)NCc3ccc(CCOc4cc(-c5ccccc5O)nnc4N)cc3)no2)C(C)C)cc1` [Compound 212, (2S,4R)-1-[(2R)-2-[3-(2-[[10-([[4-(2-[[3-amino-6-(2-hydroxyphenyl)pyridazin-4-yl]oxy]ethyl)phenyl]methyl]carbamoyl)decyl]amino]ethoxy)-1,2-oxazol-5-yl]-3-methylbutanoyl]-4-hydroxy-N-[(1S)-1-[4-(4-methyl-1,3-thiazol-5-yl)phenyl]ethyl]pyrrolidine-2-carboxamide]: at HiBiT-BRM, the “BRM HiBit Degradation Maximum (%)” value is listed as “A (“A” indicates maximum degradation ≥75%)” and the DC50 is above 0.01 µM. Further, at HiBit-BRG1, the DC50 was above 1 µM and the Dmax is below 50%.
Consider `Nc1nnc(-c2ccccc2O)cc1OCCc1ccc(C(=O)NCCCCCNc2cccc3c2C(=O)N(C2CCC(=O)NC2=O)C3=O)cc1` (stereo not drawn) [Compound 50, 4-(2-((3-amino-6-(2-hydroxyphenyl)pyridazin-4-yl)oxy)ethyl)-N-(5-((2-(2,6-dioxopiperidin-3-yl)-1,3-dioxoisoindolin-4-yl)amino)pentyl)benzamide], for which, at HiBiT-BRM, the “BRM HiBit Degradation Maximum (%)” value is given as “C (“C” indicates maximum degradation <50%)” and the DC50 was above 1 µM. Also, at HiBit-BRG1, the DC50 is above 1 µM and the Dmax was below 50%.
Regarding `Nc1nnc(-c2ccccc2O)cc1N1CCN(CC(=O)NCCCCCCCCNc2ccc3c(c2)C(=O)N(C2CCC(=O)NC2=O)C3=O)CC1` (stereo not drawn) [Compound 83, 2-[4-[3-amino-6-(2-hydroxyphenyl)pyridazin-4-yl]piperazin-1-yl]-N-(8-[[2-(2,6-dioxopiperidin-3-yl)-1,3-dioxoisoindol-5-yl]amino]octyl)acetamide], at HiBiT-BRM, the “BRM HiBit Degradation Maximum (%)” value was “B (“B” indicates maximum degradation ≥50%)” and the DC50 was above 0.1 µM. For the same compound, at HiBit-BRG1, the DC50 was above 1 µM and the Dmax is below 50%.
The like results for `Nc1nnc(-c2ccccc2O)cc1OCCc1ccc(C(=O)NCCS(=O)(=O)CCNc2cccc3c2C(=O)N(C2CCC(=O)NC2=O)C3=O)cc1` (stereo not drawn) [Compound 55, 4-(2-[[3-amino-6-(2-hydroxyphenyl)pyridazin-4-yl]oxy]ethyl)-N-[2-(2-[[2-(2,6-dioxopiperidin-3-yl)-1,3-dioxoisoindol-4-yl]amino]ethanesulfonyl)ethyl]benzamide] were, in that order, “C (“C” indicates maximum degradation <50%)”, above 1 µM, above 1 µM and below 50%.
`Cc1ncsc1-c1ccc(CNC(=O)[C@@H]2C[C@@H](O)CN2C(=O)[C@@H](NC(=O)CCN2CCC(OC3CCN(CCC(=O)NCc4ccc(CCOc5cc(-c6ccccc6O)nnc5N)cc4)CC3)CC2)C(C)(C)C)cc1` [Compound 236, (2S,4R)-1-((S)-2-(3-(4-((1-(3-((4-(2-((3-amino-6-(2-hydroxyphenyl)pyridazin-4-yl)oxy)ethyl)benzyl)amino)-3-oxopropyl)piperidin-4-yl)oxy)piperidin-1-yl)propanamido)-3,3-dimethylbutanoyl)-4-hydroxy-N-(4-(4-methylthiazol-5-yl)benzyl)pyrrolidine-2-carboxamide]: at HiBiT-BRM, the “BRM HiBit Degradation Maximum (%)” value is reported as “B (“B” indicates maximum degradation ≥50%)” and the DC50 was above 1 µM. In addition, at HiBit-BRG1, the DC50 is above 1 µM and the Dmax is below 50%.

These data come from patent US20230150974A1 (Foghorn Therapeutics Inc., priority 2020, published 2023).
